Test results reported in US9980943B2, “Methods of treating muscular dystrophy” (BOARD OF REGENTS OF THE NEVADA SYSTEM OF HIGHER EDUCATION, …, priority 2013, dated 2018).

Tests used:
Format in all cases: cell-based, mouse
[1] = tested on: α7 integrin (LacZ reporter in α7βgal+/− myoblasts); assay: Myoblast α7+/LacZ integrin FDG assay (Burkin assay in myoblasts, 96-well); settings: 96-well; for Burkin Assay in Myoblasts, value relative to DMSO: SU9516 analogs, N=3-6; for Burkin Assay in Myoblasts, signal relative to DMSO: α7+/LacZ myoblasts
[2] = tested on: β-galactosidase in CMV-LacZ C2C12 myotubes; assay: CMV-LacZ secondary screen in C2C12 myotubes (β-Gal stabilizing assay); settings: for CMV-LACZ in Myotubes, value relative to DMSO: SU9516 analogs, C2C12 CMV-LacZ, N=2; for CMV-LACZ in Myotubes, signal relative to DMSO: C2C12 CMV-LacZ myotubes, fold relative to DMSO
Method in brief: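 β-Gal level was the read-out, measured in a clonal C2C12 line expressing LacZ from a CMV promoter. Dose-response curves used six concentrations, 0.5 μM up to 40 μM, with duplicate points.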

[3] = tested on: α7 integrin (LacZ reporter in α7+/LacZ myotubes); assay: Myotube α7 integrin FDG assay (Burkin assay in myotubes, 96-well); settings: for Burkin Assay in Myotubes, value relative to DMSO: SU9516 analogs, 96-well, N=3-6
[4] = tested on: β-galactosidase in CMV-LacZ C2C12 myoblasts; assay: CMV-LacZ secondary screen in C2C12 myoblasts (β-Gal stabilizing assay); settings: for CMV-LACZ in Myoblasts, value relative to DMSO: SU9516 analogs, C2C12 CMV-LacZ, N=2; for CMV-LACZ in Myoblasts (β-galactosidase activity relative to DMSO): CMV-LacZ C2C12 myoblasts
Method in brief: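 C2C12 myoblasts stably carrying a linearized CMV-driven LacZ construct, clone chosen by β-gal level in the myoblast FDG assay. Compounds tested in 96-well dose-response at 0.5, 1, 5, 10, 20 and 40 μM, N=2 replicates per point, to detect β-gal stabilization.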

NC(=O)COc1ccc(C(=O)/C=C2/C(=O)Nc3ccccc32)cc1 [MLS001214300-01]
Burkin Assay in Myoblasts, value relative to DMSO ([1]; 0.5 uM): 1.211
Burkin Assay in Myoblasts, value relative to DMSO ([1]; 1 uM): 0.9366
Burkin Assay in Myoblasts, value relative to DMSO ([1]; 5 uM): 0.8041
Burkin Assay in Myoblasts, value relative to DMSO ([1]; 10 uM): 0.353
Burkin Assay in Myoblasts, value relative to DMSO ([1]; 20 uM): 0.1847
Burkin Assay in Myoblasts, value relative to DMSO ([1]; 40 uM): 0.02593
CMV-LACZ in Myotubes, value relative to DMSO ([2]; 0.5 uM): 0.9819
CMV-LACZ in Myotubes, value relative to DMSO ([2]; 1 uM): 0.8924
CMV-LACZ in Myotubes, value relative to DMSO ([2]; 5 uM): 1.0550
CMV-LACZ in Myotubes, value relative to DMSO ([2]; 10 uM): 1.0956
CMV-LACZ in Myotubes, value relative to DMSO ([2]; 20 uM): 6.2635
CMV-LACZ in Myotubes, value relative to DMSO ([2]; 40 uM): 0.7118
Burkin Assay in Myotubes, value relative to DMSO ([3]; 0.5 uM): 1.019
Burkin Assay in Myotubes, value relative to DMSO ([3]; 1 uM): 1.039
Burkin Assay in Myotubes, value relative to DMSO ([3]; 5 uM): 1.091
Burkin Assay in Myotubes, value relative to DMSO ([3]; 10 uM): 0.8733
Burkin Assay in Myotubes, value relative to DMSO ([3]; 20 uM): 0.7447
Burkin Assay in Myotubes, value relative to DMSO ([3]; 40 uM): 0.3178
CMV-LACZ in Myoblasts, value relative to DMSO ([4]; 0.5 uM): 1.0446
CMV-LACZ in Myoblasts, value relative to DMSO ([4]; 1 uM): 0.9403
CMV-LACZ in Myoblasts, value relative to DMSO ([4]; 5 uM): 0.7949
CMV-LACZ in Myoblasts, value relative to DMSO ([4]; 10 uM): 1.1047
CMV-LACZ in Myoblasts, value relative to DMSO ([4]; 20 uM): 0.4007
CMV-LACZ in Myoblasts, value relative to DMSO ([4]; 40 uM): 0.1793

O=C(CSc1nnc2c(n1)[nH]c1ccccc12)NCc1ccccc1F [MLS001225512-01]
Burkin Assay in Myoblasts, signal relative to DMSO ([1]; 0.5 uM): 1.1596
Burkin Assay in Myoblasts, signal relative to DMSO ([1]; 1 uM): 0.9131
Burkin Assay in Myoblasts, signal relative to DMSO ([1]; 5 uM): 1.173
Burkin Assay in Myoblasts, signal relative to DMSO ([1]; 10 uM): 0.8832
Burkin Assay in Myoblasts, signal relative to DMSO ([1]; 20 uM): 1.108
Burkin Assay in Myoblasts, signal relative to DMSO ([1]; 40 uM): 1.284
CMV-LACZ in Myotubes, signal relative to DMSO ([2]; 0.5 uM): 1.0162
CMV-LACZ in Myotubes, signal relative to DMSO ([2]; 1 uM): 1.0381
CMV-LACZ in Myotubes, signal relative to DMSO ([2]; 5 uM): 0.9459
CMV-LACZ in Myotubes, signal relative to DMSO ([2]; 10 uM): 1.0077
CMV-LACZ in Myotubes, signal relative to DMSO ([2]; 20 uM): 1.2482
CMV-LACZ in Myotubes, signal relative to DMSO ([2]; 40 uM): 0.8871
Burkin Assay in Myotubes, α7 integrin LacZ reporter signal relative to DMSO ([3]; 0.5 uM): 0.929
Burkin Assay in Myotubes, α7 integrin LacZ reporter signal relative to DMSO ([3]; 1 uM): 1.059
Burkin Assay in Myotubes, α7 integrin LacZ reporter signal relative to DMSO ([3]; 5 uM): 0.9799
Burkin Assay in Myotubes, α7 integrin LacZ reporter signal relative to DMSO ([3]; 10 uM): 0.8235
Burkin Assay in Myotubes, α7 integrin LacZ reporter signal relative to DMSO ([3]; 20 uM): 0.8431
Burkin Assay in Myotubes, α7 integrin LacZ reporter signal relative to DMSO ([3]; 40 uM): 0.7401
CMV-LACZ in Myoblasts (β-galactosidase activity relative to DMSO) ([4]; 0.5 uM): 0.9597
CMV-LACZ in Myoblasts (β-galactosidase activity relative to DMSO) ([4]; 1 uM): 1.0843
CMV-LACZ in Myoblasts (β-galactosidase activity relative to DMSO) ([4]; 5 uM): 1.1655
CMV-LACZ in Myoblasts (β-galactosidase activity relative to DMSO) ([4]; 10 uM): 1.4266
CMV-LACZ in Myoblasts (β-galactosidase activity relative to DMSO) ([4]; 20 uM): 0.8237
CMV-LACZ in Myoblasts (β-galactosidase activity relative to DMSO) ([4]; 40 uM): 1.0111

O=C(Nc1ccccc1Cl)C1CCCN1C(=O)OCc1ccccc1 (stereo not drawn) [MLS001030621-01]
Burkin Assay in Myoblasts, signal relative to DMSO ([1]; 0.5 uM): 1.004
Burkin Assay in Myoblasts, signal relative to DMSO ([1]; 1 uM): 1.158
Burkin Assay in Myoblasts, signal relative to DMSO ([1]; 5 uM): 1.15
Burkin Assay in Myoblasts, signal relative to DMSO ([1]; 10 uM): 1.161
Burkin Assay in Myoblasts, signal relative to DMSO ([1]; 20 uM): 1.001
Burkin Assay in Myoblasts, signal relative to DMSO ([1]; 40 uM): 1.01
CMV-LACZ in Myotubes, signal relative to DMSO ([2]; 0.5 uM): 0.7844
CMV-LACZ in Myotubes, signal relative to DMSO ([2]; 1 uM): 0.7970
CMV-LACZ in Myotubes, signal relative to DMSO ([2]; 5 uM): 0.9872
CMV-LACZ in Myotubes, signal relative to DMSO ([2]; 10 uM): 1.0546
CMV-LACZ in Myotubes, signal relative to DMSO ([2]; 20 uM): 0.9024
CMV-LACZ in Myotubes, signal relative to DMSO ([2]; 40 uM): 1.0141
Burkin Assay in Myotubes, α7 integrin LacZ reporter signal relative to DMSO ([3]; 0.5 uM): 0.9724
Burkin Assay in Myotubes, α7 integrin LacZ reporter signal relative to DMSO ([3]; 1 uM): 0.9493
Burkin Assay in Myotubes, α7 integrin LacZ reporter signal relative to DMSO ([3]; 5 uM): 0.999
Burkin Assay in Myotubes, α7 integrin LacZ reporter signal relative to DMSO ([3]; 10 uM): 0.9429
Burkin Assay in Myotubes, α7 integrin LacZ reporter signal relative to DMSO ([3]; 20 uM): 0.7954
Burkin Assay in Myotubes, α7 integrin LacZ reporter signal relative to DMSO ([3]; 40 uM): 0.7203
CMV-LACZ in Myoblasts (β-galactosidase activity relative to DMSO) ([4]; 0.5 uM): 0.7081
CMV-LACZ in Myoblasts (β-galactosidase activity relative to DMSO) ([4]; 1 uM): 1.0531
CMV-LACZ in Myoblasts (β-galactosidase activity relative to DMSO) ([4]; 5 uM): 1.0494
CMV-LACZ in Myoblasts (β-galactosidase activity relative to DMSO) ([4]; 10 uM): 1.1844
CMV-LACZ in Myoblasts (β-galactosidase activity relative to DMSO) ([4]; 20 uM): 1.0307
CMV-LACZ in Myoblasts (β-galactosidase activity relative to DMSO) ([4]; 40 uM): 0.9063

Fc1ccc(-c2ccnc3nc(N4CCN(c5ccccc5)CC4)nn23)cc1 [MLS000546316-01]
Burkin Assay in Myoblasts, signal relative to DMSO ([1]; 0.5 uM): 1.159
Burkin Assay in Myoblasts, signal relative to DMSO ([1]; 1 uM): 1.223
Burkin Assay in Myoblasts, signal relative to DMSO ([1]; 5 uM): 1.164
Burkin Assay in Myoblasts, signal relative to DMSO ([1]; 10 uM): 1.123
Burkin Assay in Myoblasts, signal relative to DMSO ([1]; 20 uM): 1.026
Burkin Assay in Myoblasts, signal relative to DMSO ([1]; 40 uM): 1.027
CMV-LACZ in Myotubes, signal relative to DMSO ([2]; 0.5 uM): 1.2590
CMV-LACZ in Myotubes, signal relative to DMSO ([2]; 1 uM): 1.0019
CMV-LACZ in Myotubes, signal relative to DMSO ([2]; 5 uM): 1.0040
CMV-LACZ in Myotubes, signal relative to DMSO ([2]; 10 uM): 1.0825
CMV-LACZ in Myotubes, signal relative to DMSO ([2]; 20 uM): 1.0190
CMV-LACZ in Myotubes, signal relative to DMSO ([2]; 40 uM): 1.2640
Burkin Assay in Myotubes, α7 integrin LacZ reporter signal relative to DMSO ([3]; 0.5 uM): 1.137
Burkin Assay in Myotubes, α7 integrin LacZ reporter signal relative to DMSO ([3]; 1 uM): 1.174
Burkin Assay in Myotubes, α7 integrin LacZ reporter signal relative to DMSO ([3]; 5 uM): 1.066
Burkin Assay in Myotubes, α7 integrin LacZ reporter signal relative to DMSO ([3]; 10 uM): 1.099
Burkin Assay in Myotubes, α7 integrin LacZ reporter signal relative to DMSO ([3]; 20 uM): 0.8571
Burkin Assay in Myotubes, α7 integrin LacZ reporter signal relative to DMSO ([3]; 40 uM): 1.176
CMV-LACZ in Myoblasts (β-galactosidase activity relative to DMSO) ([4]; 0.5 uM): 1.0623
CMV-LACZ in Myoblasts (β-galactosidase activity relative to DMSO) ([4]; 1 uM): 1.1373
CMV-LACZ in Myoblasts (β-galactosidase activity relative to DMSO) ([4]; 5 uM): 0.8090
CMV-LACZ in Myoblasts (β-galactosidase activity relative to DMSO) ([4]; 10 uM): 1.2440
CMV-LACZ in Myoblasts (β-galactosidase activity relative to DMSO) ([4]; 20 uM): 1.3463
CMV-LACZ in Myoblasts (β-galactosidase activity relative to DMSO) ([4]; 40 uM): 1.5049

CN(/C(=N/S(=O)(=O)c1cccs1)c1ccccc1)c1ccccc1 [MLS000582947-01]
Burkin Assay in Myoblasts, signal relative to DMSO ([1]; 0.5 uM): 1.236
Burkin Assay in Myoblasts, signal relative to DMSO ([1]; 1 uM): 0.9632
Burkin Assay in Myoblasts, signal relative to DMSO ([1]; 5 uM): 0.943
Burkin Assay in Myoblasts, signal relative to DMSO ([1]; 10 uM): 0.9807
Burkin Assay in Myoblasts, signal relative to DMSO ([1]; 20 uM): 0.9417
Burkin Assay in Myoblasts, signal relative to DMSO ([1]; 40 uM): 0.7737
CMV-LACZ in Myotubes, signal relative to DMSO ([2]; 0.5 uM): 0.8848
CMV-LACZ in Myotubes, signal relative to DMSO ([2]; 1 uM): 0.9610
CMV-LACZ in Myotubes, signal relative to DMSO ([2]; 5 uM): 0.9280
CMV-LACZ in Myotubes, signal relative to DMSO ([2]; 10 uM): 0.9127
CMV-LACZ in Myotubes, signal relative to DMSO ([2]; 20 uM): 1.0729
CMV-LACZ in Myotubes, signal relative to DMSO ([2]; 40 uM): 1.0247
Burkin Assay in Myotubes, α7 integrin LacZ reporter signal relative to DMSO ([3]; 0.5 uM): 0.9003
Burkin Assay in Myotubes, α7 integrin LacZ reporter signal relative to DMSO ([3]; 1 uM): 1.155
Burkin Assay in Myotubes, α7 integrin LacZ reporter signal relative to DMSO ([3]; 5 uM): 1.02
Burkin Assay in Myotubes, α7 integrin LacZ reporter signal relative to DMSO ([3]; 10 uM): 0.9759
Burkin Assay in Myotubes, α7 integrin LacZ reporter signal relative to DMSO ([3]; 20 uM): 1.102
Burkin Assay in Myotubes, α7 integrin LacZ reporter signal relative to DMSO ([3]; 40 uM): 0.791
CMV-LACZ in Myoblasts (β-galactosidase activity relative to DMSO) ([4]; 0.5 uM): 0.9691
CMV-LACZ in Myoblasts (β-galactosidase activity relative to DMSO) ([4]; 1 uM): 0.8991
CMV-LACZ in Myoblasts (β-galactosidase activity relative to DMSO) ([4]; 5 uM): 1.1273
CMV-LACZ in Myoblasts (β-galactosidase activity relative to DMSO) ([4]; 10 uM): 1.0067
CMV-LACZ in Myoblasts (β-galactosidase activity relative to DMSO) ([4]; 20 uM): 0.7811
CMV-LACZ in Myoblasts (β-galactosidase activity relative to DMSO) ([4]; 40 uM): 0.8819
